Results reported in US9833497B2, “Human originated EGF domain proteins and use of the same” (CHENGDU SOURCEBIO LIMITED-LIABILITY COMPANY, priority 2013, dated 2017).

Experiments:
Assay type in all cases: cell-based
E. coli DH5α = test: Antibacterial activity: MIC and growth curve against E. coli DH5α in 96-well plate; conditions: minimal inhibitory concentration against E. coli DH5α; 96-well plate, 5×10^5 CFU/mL, 37° C., judged after 8 h
In short: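 MIC taken as lowest protein level with no bacterial growth, tracked by A600 every 30 min during 37 °C, 175 rpm culture. Two-fold protein series 50-12.5 μg/mL final, triplicate wells, against 5×10^5 CFU/mL of LB-washed mid-log cells.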

E. coli BL21 = test: MIC against Gram-negative bacteria: E. coli BL21; conditions: 5×10^5 CFU/mL
In short: (§1)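 Purified recombinant human EGF domain proteins are tested by broth dilution in LB against a 5×10^5 CFU/mL inoculum, with two-fold serial dilutions run in triplicate. Plates are incubated at 37° C with shaking, and the MIC is read as the lowest protein concentration without growth.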

Pseudomonas aeruginosa = test: MIC against Gram-negative bacteria: Pseudomonas aeruginosa; conditions: 5×10^5 CFU/mL
In short: as §1

Klebsiella pneumonia = test: MIC against Gram-negative bacteria: Klebsiella pneumonia; conditions: 5×10^5 CFU/mL
In short: as §1

Enterobacter cloacae = test: MIC against Gram-negative bacteria: Enterobacter cloacae; conditions: 5×10^5 CFU/mL
In short: as §1

Aeromonas hydrophila = test: MIC against Gram-negative bacteria: Aeromonas hydrophila; conditions: 5×10^5 CFU/mL
In short: as §1

Citrobacter diversus = test: MIC against Gram-negative bacteria: Citrobacter diversus; conditions: 5×10^5 CFU/mL
In short: as §1

Moraxella catarrhalis = test: MIC against Gram-negative bacteria: Moraxella catarrhalis; conditions: 5×10^5 CFU/mL
In short: as §1

Proteus mirabilis = test: MIC against Gram-negative bacteria: Proteus mirabilis; conditions: 5×10^5 CFU/mL
In short: as §1

Proteus vulgaris = test: MIC against Gram-negative bacteria: Proteus vulgaris; conditions: 5×10^5 CFU/mL
In short: as §1

Serratia marcescens = test: MIC against Gram-negative bacteria: Serratia marcescens; conditions: 5×10^5 CFU/mL
In short: as §1

[1] = E. coli BL21, 10 h cultivation at 37° C.
[2] = P. aeruginosa, 10 h cultivation at 37° C.
[3] = K. pneumonia, 10 h cultivation at 37° C.
[4] = E. cloacae, 10 h cultivation at 37° C.
[5] = A. hydrophila, 10 h cultivation at 37° C.
[6] = C. diversus, 10 h cultivation at 37° C.
[7] = M. catarrhalis, 10 h cultivation at 37° C.
[8] = P. mirabilis, 10 h cultivation at 37° C.
[9] = P. vulgaris, 10 h cultivation at 37° C.
[10] = S. marcescens, 10 h cultivation at 37° C.
[11] = E. coli BL21, 96-well plate, 37° C., 10 h
[12] = Pseudomonas aeruginosa, 96-well plate, 37° C., 10 h
[13] = Klebsiella pneumonia, 96-well plate, 37° C., 10 h
[14] = Enterobacter cloacae, 96-well plate, 37° C., 10 h
[15] = Aeromonas hydrophila, 96-well plate, 37° C., 10 h
[16] = Citrobacter diversus, 96-well plate, 37° C., 10 h
[17] = Moraxella catarrhalis, 96-well plate, 37° C., 10 h
[18] = Proteus mirabilis, 96-well plate, 37° C., 10 h
[19] = Proteus vulgaris, 96-well plate, 37° C., 10 h
[20] = Serratia marcescens, 96-well plate, 37° C., 10 h

PRT744 (GWNECASSNGHCSHLCLAVPVGGFVCGCPAHYSLNADNRTCS; listed as Homo sapiens)
MIC (E. coli DH5α): 12.5 µg/mL | MIC (μg/mL) E. coli BL21 (E. coli BL21; [1]): 50 µg/mL | MIC (μg/mL) P. aeruginosa (Pseudomonas aeruginosa; [2]): 12.5 µg/mL | MIC (μg/mL) K. pneumonia (Klebsiella pneumonia; [3]): 50 µg/mL | MIC (μg/mL) E. cloacae (Enterobacter cloacae; [4]): 12.5 µg/mL | MIC (μg/mL) A. hydrophila (Aeromonas hydrophila; [5]): 50 µg/mL | MIC (μg/mL) C. diversus (Citrobacter diversus; [6]): 12.5 µg/mL | MIC (μg/mL) M. catarrhalis (Moraxella catarrhalis; [7]): 50 µg/mL | MIC (μg/mL) P. mirabilis (Proteus mirabilis; [8]): 25 µg/mL | MIC (μg/mL) P. vulgaris (Proteus vulgaris; [9]): 25 µg/mL | MIC (μg/mL) S. marcescens (Serratia marcescens; [10]): 12.5 µg/mL

PRT1287 (EPCRKLYCLHGICQPNATPGPMCHCEAGWVGLHCD; listed as Homo sapiens)
MIC (E. coli DH5α): 50 µg/mL | MIC against E. coli BL21 (E. coli BL21; [11]): 25 µg/mL | MIC against P. aeruginosa (Pseudomonas aeruginosa; [12]): 12.5 µg/mL | MIC against K. pneumonia (Klebsiella pneumonia; [13]): 50 µg/mL | MIC against E. cloacae (Enterobacter cloacae; [14]): 12.5 µg/mL | MIC against A. hydrophila (Aeromonas hydrophila; [15]): 50 µg/mL | MIC against C. diversus (Citrobacter diversus; [16]): 12.5 µg/mL | MIC against M. catarrhalis (Moraxella catarrhalis; [17]): 50 µg/mL | MIC against P. mirabilis (Proteus mirabilis; [18]): 12.5 µg/mL | MIC against P. vulgaris (Proteus vulgaris; [19]): 50 µg/mL | MIC against S. marcescens (Serratia marcescens; [20]): 50 µg/mL

PRT438 (DIDECALGRHTCHAGQDCDNTIGSYRCVVRCGSGFRRTSDGLSCQ; listed as Homo sapiens)
MIC (E. coli DH5α): 25 µg/mL | MIC (E. coli BL21; [1]): 12.5 µg/mL | MIC (Pseudomonas aeruginosa; [2]): 50 µg/mL | MIC (Klebsiella pneumonia; [3]): 12.5 µg/mL | MIC (Enterobacter cloacae; [4]): 50 µg/mL | MIC (Aeromonas hydrophila; [5]): 12.5 µg/mL | MIC (Citrobacter diversus; [6]): 50 µg/mL | MIC (Moraxella catarrhalis; [7]): 12.5 µg/mL | MIC (Proteus mirabilis; [8]): 50 µg/mL | MIC (Proteus vulgaris; [9]): 12.5 µg/mL | MIC (Serratia marcescens; [10]): 50 µg/mL

PRT843 (CQCNGHGDPRRGHCDNLSGLCFCQDHTEGAHCQLCSPGYYGDPRAGGSCFR; listed as Homo sapiens)
MIC (E. coli DH5α): 25 µg/mL | MIC (μg/mL) E. coli BL21 (E. coli BL21; [1]): 12.5 µg/mL | MIC (μg/mL) P. aeruginosa (Pseudomonas aeruginosa; [2]): 12.5 µg/mL | MIC (μg/mL) K. pneumonia (Klebsiella pneumonia; [3]): 12.5 µg/mL | MIC (μg/mL) E. cloacae (Enterobacter cloacae; [4]): 25 µg/mL | MIC (μg/mL) A. hydrophila (Aeromonas hydrophila; [5]): 50 µg/mL | MIC (μg/mL) C. diversus (Citrobacter diversus; [6]): 25 µg/mL | MIC (μg/mL) M. catarrhalis (Moraxella catarrhalis; [7]): 12.5 µg/mL | MIC (μg/mL) P. mirabilis (Proteus mirabilis; [8]): 25 µg/mL | MIC (μg/mL) P. vulgaris (Proteus vulgaris; [9]): 25 µg/mL | MIC (μg/mL) S. marcescens (Serratia marcescens; [10]): 50 µg/mL

PRT688 (DVDECQLFRDQVCKSGVCVNTAPGYSCYCSNGYYYHTQRLECI; listed as Homo sapiens)
MIC (E. coli DH5α): 25 µg/mL | MIC E. coli BL21 (E. coli BL21; 96-well plate, 37° C., 10 h): 12.5 µg/mL | MIC P. aeruginosa (Pseudomonas aeruginosa; 96-well plate, 37° C., 10 h): 25 µg/mL | MIC K. pneumonia (Klebsiella pneumonia; 96-well plate, 37° C., 10 h): 50 µg/mL | MIC E. cloacae (Enterobacter cloacae; 96-well plate, 37° C., 10 h): 12.5 µg/mL | MIC A. hydrophila (Aeromonas hydrophila; 96-well plate, 37° C., 10 h): 25 µg/mL | MIC C. diversus (Citrobacter diversus; 96-well plate, 37° C., 10 h): 50 µg/mL | MIC M. catarrhalis (Moraxella catarrhalis; 96-well plate, 37° C., 10 h): 12.5 µg/mL | MIC P. mirabilis (Proteus mirabilis; 96-well plate, 37° C., 10 h): 50 µg/mL | MIC P. vulgaris (Proteus vulgaris; 96-well plate, 37° C., 10 h): 100 µg/mL | MIC S. marcescens (Serratia marcescens; 96-well plate, 37° C., 10 h): 50 µg/mL

PRT75 (DDNICLREPCENYMRCVSVLRFDSSAPFIASSSVLFRPIHPVGGLRCRCPPGFTGDYCE; listed as Homo sapiens)
MIC (E. coli DH5α): 50 µg/mL | MIC (μg/mL) E. coli BL21 (E. coli BL21; [11]): 25 µg/mL | MIC (μg/mL) P. aeruginosa (Pseudomonas aeruginosa; [12]): 12.5 µg/mL | MIC (μg/mL) K. pneumonia (Klebsiella pneumonia; [13]): 25 µg/mL | MIC (μg/mL) E. cloacae (Enterobacter cloacae; [14]): 50 µg/mL | MIC (μg/mL) A. hydrophila (Aeromonas hydrophila; [15]): 12.5 µg/mL | MIC (μg/mL) C. diversus (Citrobacter diversus; [16]): 12.5 µg/mL | MIC (μg/mL) M. catarrhalis (Moraxella catarrhalis; [17]): 12.5 µg/mL | MIC (μg/mL) P. mirabilis (Proteus mirabilis; [18]): 12.5 µg/mL | MIC (μg/mL) P. vulgaris (Proteus vulgaris; [19]): 12.5 µg/mL | MIC (μg/mL) S. marcescens (Serratia marcescens; [20]): 12.5 µg/mL

PRT122 (CAPCQGNGVPVLKGSRCDCICPVGSQGLACE; listed as Homo sapiens)
MIC (E. coli DH5α): 12.5 µg/mL | MIC (μg/mL) E. coli BL21 (E. coli BL21; [11]): 12.5 µg/mL | MIC (μg/mL) P. aeruginosa (Pseudomonas aeruginosa; [12]): 12.5 µg/mL | MIC (μg/mL) K. pneumonia (Klebsiella pneumonia; [13]): 12.5 µg/mL | MIC (μg/mL) E. cloacae (Enterobacter cloacae; [14]): 12.5 µg/mL | MIC (μg/mL) A. hydrophila (Aeromonas hydrophila; [15]): 12.5 µg/mL | MIC (μg/mL) C. diversus (Citrobacter diversus; [16]): 12.5 µg/mL | MIC (μg/mL) M. catarrhalis (Moraxella catarrhalis; [17]): 25 µg/mL | MIC (μg/mL) P. mirabilis (Proteus mirabilis; [18]): 12.5 µg/mL | MIC (μg/mL) P. vulgaris (Proteus vulgaris; [19]): 25 µg/mL | MIC (μg/mL) S. marcescens (Serratia marcescens; [20]): 12.5 µg/mL
